From US6924300B2, “Oxyiminoalkanoic acid derivatives” (Takeda Chemical Industries, Ltd., priority 1998, dated 2005) come the findings set out here.

The melting point is the temperature of the solid-liquid transition.

For `Cc1oc(-c2ccccc2)nc1COc1ccc(CCCO/N=C(\C(=O)O)c2ccccc2)cc1` [Example 2, Z-2-[3-[4-(5-methyl-2-phenyl-4-oxazolylmethoxy)phenyl]propoxyimino]-2-phenylacetic acid], the melting point is 165 to 166 °C (dec.).
The value for `CN(CCOc1ccc(CO/N=C(\C(=O)O)c2ccccc2)cc1)c1ccccn1` [Example 3, Z-2-[4-[2-(methyl-2-pyridylamino)ethoxy]benzyloxyimino]-2-phenylacetic acid] was 93 to 94 °C; that for `Cc1oc(-c2ccccc2)nc1COc1ccc(CO/N=C(\Cc2ccccc2)C(=O)O)cc1` [Example 6, E-2-[4-(5-methyl-2-phenyl-4-oxazolylmethoxy)benzyloxyimino]-3-phenylpropionic acid] was 143 to 144 °C (dec.).
The value for `CCCC/C(=N\OCc1ccc(OCc2nc(-c3ccccc3)oc2C)cc1)C(=O)O` [Example 8, E-2-[4-(5-methyl-2-phenyl-4-oxazolylmethoxy)benzyloxyimino]hexanoic acid] was 112 to 114 °C; that for `C/C(=N\OCc1ccc(OCc2nc(-c3ccccc3)oc2C)cc1)C(=O)O` [Example 9, E-2-[4-(5-methyl-2-phenyl-4-oxazolylmethoxy)benzyloxyimino]propionic acid] was 147 to 148 °C; that for `Cc1oc(-c2ccccc2)nc1COc1ccc(CO/N=C(\C(=O)O)c2cccc(Oc3ccccc3)c2)cc1` [Example 13, Z-2-[4-(5-methyl-2-phenyl-4-oxazolylmethoxy)benzyloxyimino]-2-(3-phenoxyphenyl)acetic acid] was 173 to 174 °C (dec.).
The value for `Cc1oc(-c2ccccc2)nc1COc1ccc(CO/N=C(/C(=O)O)c2cccc(Oc3ccccc3)c2)cc1` [Example 14, E-2-[4-(5-methyl-2-phenyl-4-oxazolylmethoxy)benzyloxyimino]-2-(3-phenoxyphenyl)acetic acid] was 55 to 65 °C; that for `Cc1oc(-c2ccccc2)nc1COc1ccc(CO/N=C(\C(=O)O)c2ccc(F)cc2)cc1` [Example 15, Z-2-(4-fluorophenyl)-2-[4-(5-methyl-2-phenyl-4-oxazolylmethoxy)benzyloxyimino]acetic acid] was 182 to 183 °C (dec.); that for `Cc1oc(-c2ccccc2)nc1COc1ccc(CO/N=C(/C(=O)O)c2ccc(F)cc2)cc1` [Example 16, E-2-(4-fluorophenyl)-2-[4-(5-methyl-2-phenyl-4-oxazolylmethoxy)benzyloxyimino]acetic acid] was 150 to 151 °C (dec.).
`Cc1oc(-c2ccccc2)nc1COc1ccc(CO/N=C(\CCCC(=O)O)c2ccccc2)cc1` [Example 18, E-5-[4-(5-methyl-2-phenyl-4-oxazolylmethoxy)benzyloxyimino]-5-phenylpentanoic acid] came in with a melting point of 129 to 130 °C.
As for `CCOC(=O)/C(=N\OCc1ccc(OCc2nc(-c3ccccc3)oc2C)cc1)c1ccc(OC)cc1` [Example 19, ethyl Z-2-(4-methoxyphenyl)-2-[4-(5-methyl-2-phenyl-4-oxazolylmethoxy)benzyloxyimino]acetate], the melting point was 102 to 103 °C.
Consider `CCOC(=O)/C(=N/OCc1ccc(OCc2nc(-c3ccccc3)oc2C)cc1)c1ccc(Br)cc1` [Example 22, ethyl E-2-(4-bromophenyl)-2-[4-(5-methyl-2-phenyl-4-oxazolylmethoxy)benzyloxyimino]acetate], for which the melting point was in the range of 105 to 106 °C.
Regarding `COc1ccc(/C(=N/OCc2ccc(OCc3nc(-c4ccccc4)oc3C)cc2)C(=O)O)cc1` [Example 24, Z-2-(4-methoxyphenyl)-2-[4-(5-methyl-2-phenyl-4-oxazolylmethoxy)benzyloxyimino]acetic acid], the melting point lay in the range of 183 to 184 °C.
The value for `Cc1oc(-c2ccccc2)nc1COc1ccc(CO/N=C(\C(=O)O)c2ccc(-c3ccsc3)cc2)cc1` [Example 30, Z-2-[4-(5-methyl-2-phenyl-4-oxazolylmethoxy)benzyloxyimino]-2-[4-(3-thienyl)phenyl]acetic acid] was 205 to 206 °C (dec.); that for `Cc1oc(-c2ccccc2)nc1COc1ccc(CO/N=C(\C(=O)O)c2ccc(/C=C/c3ccccc3)cc2)cc1` [Example 31, Z-2-[4-(5-methyl-2-phenyl-4-oxazolylmethoxy)benzyloxyimino]-2-[4-(E-2-phenylethenyl)phenyl]acetic acid] was 194 to 195 °C (dec.).
The value for `Cc1oc(-c2ccccc2)nc1COc1ccc(CO/N=C(\C(=O)O)c2cccnc2)cc1` [Example 35, Z-2-[4-(5-methyl-2-phenyl-4-oxazolylmethoxy)benzyloxyimino]-2-(3-pyridyl)acetic acid] was 156 to 157 °C (dec.); that for `Cc1oc(-c2ccccc2)nc1COc1ccc(CO/N=C(/C(=O)O)c2cccnc2)cc1` [Example 37, E-2-[4-(5-methyl-2-phenyl-4-oxazolylmethoxy)benzyloxyimino]-2-(3-pyridyl)acetic acid] was 130 to 131 °C (dec.).
With `Cc1oc(-c2ccccc2)nc1COc1ccc(CO/N=C(\C(=O)O)c2cccc(C(=O)c3ccccc3)c2)cc1` [Example 40, Z-2-(3-benzoylphenyl)-2-[4-(5-methyl-2-phenyl-4-oxazolylmethoxy)benzyloxyimino]acetic acid] the figure was 185 to 186 °C (dec.); with `Cc1oc(-c2ccccc2)nc1COc1ccc(CO/N=C(\C(=O)O)c2cccc(Br)c2)cc1` [Example 43, Z-2-(3-bromophenyl)-2-[4-(5-methyl-2-phenyl-4-oxazolylmethoxy)benzyloxyimino]acetic acid], 181 to 182 °C (dec.); with `CCOC(=O)CC/C(=N\OCc1ccc(OCc2nc(-c3ccccc3)oc2C)cc1)c1ccc(Oc2ccccc2)cc1` [Example 46, ethyl E-4-[4-(5-methyl-2-phenyl-4-oxazolylmethoxy)benzyloxyimino]-4-(4-phenoxyphenyl)butyrate], 118 to 119 °C.
As for `Cc1oc(-c2ccccc2)nc1COc1ccc(CO/N=C(\CCC(=O)O)c2ccc(Oc3ccccc3)cc2)cc1` [Example 47, E-4-[4-(5-methyl-2-phenyl-4-oxazolylmethoxy)benzyloxyimino]-4-(4-phenoxyphenyl)butyric acid], the melting point was in the range of 131 to 132 °C.
The value for `COC(=O)CC/C(=N\OCc1ccc(OCCc2nc(-c3ccccc3)oc2C)cc1)c1ccccc1` [Example 48, methyl E-4-[4-[2-(5-methyl-2-phenyl-4-oxazolyl)ethoxy]benzyloxyimino]-4-phenylbutyrate] was 73 to 74 °C; that for `Cc1oc(-c2ccccc2)nc1CCOc1ccc(CO/N=C(\CCC(=O)O)c2ccccc2)cc1` [Example 50, E-4-[4-[2-(5-methyl-2-phenyl-4-oxazolyl)ethoxy]benzyloxyimino]-4-phenylbutyric acid] was 106 to 107 °C.
With `CN(CCOc1ccc(CO/N=C(\CCC(=O)O)c2ccccc2)cc1)c1ncccn1` [Example 51, E-4-[4-[2-(methyl-2-pyrimidylamino)ethoxy]benzyloxyimino]-4-phenylbutyric acid] the figure was 72 to 73 °C.
With `Cc1oc(-c2ccccc2)nc1COc1ccc(CON=C(CC(=O)O)c2ccccc2)cc1` [Example 53, 3-[4-(5-methyl-2-phenyl-4-oxazolylmethoxy)benzyloxyimino]-3-phenylpropionic acid] the figure was 107 to 108 °C; with `O=C(O)CC/C(=N\OCc1ccc(OCc2cn3c(Cl)cccc3n2)cc1)c1ccccc1` [Example 55, E-4-[4-(5-chloroimidazo[1,2-a]pyridin-2-ylmethoxy)benzyloxyimino]-4-phenylbutyric acid], 160 to 161 °C; with `O=C(O)CC/C(=N\OCc1ccc(OCc2cn3c(-c4ccccc4)cccc3n2)cc1)c1ccccc1` [Example 57, E-4-[4-(5-phenylimidazo[1,2-a]pyridin-2-ylmethoxy)benzyloxyimino]-4-phenylbutyric acid], 160 to 161 °C.
Consider `Cc1oc(-c2ccccc2)nc1COc1ccc(CO/N=C(\CCCCC(=O)O)c2ccccc2)cc1` [Example 60, E-6-[4-(5-methyl-2-phenyl-4-oxazolylmethoxy)benzyloxyimino]-6-phenylhexanoic acid], for which the melting point lay in the range of 112 to 113 °C.
In turn, `Cc1oc(-c2ccccc2)nc1COc1ccc(CO/N=C(/CCCCC(=O)O)c2ccccc2)cc1` [Example 61, Z-6-[4-(5-methyl-2-phenyl-4-oxazolylmethoxy)benzyloxyimino]-6-phenylhexanoic acid] registered a melting point of 101 to 102 °C.
The value for `Cc1oc(-c2ccccc2)nc1COc1ccc(CO/N=C2\CC(C(=O)O)c3ccccc32)cc1` (centres unmarked) [Example 62, E-3-[4-(5-methyl-2-phenyl-4-oxazolylmethoxy)benzyloxyimino]-1-indancarboxylic acid] was 148 to 149 °C; that for `Cc1oc(-c2ccccc2)nc1COc1ccc(CO/N=C(\CCC(=O)O)c2ccccn2)cc1` [Example 64, E-4-[4-(5-methyl-2-phenyl-4-oxazolylmethoxy)benzyloxyimino]-4-(2-pyridyl)butyric acid] was 116 to 117 °C; that for `Cc1oc(-c2ccccc2)nc1COc1ccc(CO/N=C(/CCC(=O)O)c2ccco2)cc1` [Example 68, Z-4-(2-furyl)-4-[4-(5-methyl-2-phenyl-4-oxazolylmethoxy)benzyloxyimino]butyric acid] was 131 to 133 °C.
The value for `Cc1oc(-c2ccccc2)nc1COc1ccc(CO/N=C(\CCC(=O)O)c2cccnc2)cc1` [Example 70, E-4-[4-(5-methyl-2-phenyl-4-oxazolylmethoxy)benzyloxyimino]-4-(3-pyridyl)butyric acid] was 158 to 159 °C; that for `Cc1oc(-c2ccccc2)nc1COc1ccc(CO/N=C(\CCC(=O)O)c2ccncc2)cc1` [Example 71, E-4-[4-(5-methyl-2-phenyl-4-oxazolylmethoxy)benzyloxyimino]-4-(4-pyridyl)butyric acid] was 161 to 162 °C; that for `Cc1oc(-c2ccccc2)nc1COc1ccc(CO/N=C(\CCC(=O)O)c2ccco2)cc1` [Example 72, E-4-(2-furyl)-4-[4-(5-methyl-2-phenyl-4-oxazolylmethoxy)benzyloxyimino]butyric acid] was 124 to 125 °C.
